What was measured:
[1] = molecular target: Poly [ADP-ribose] polymerase 1 (Homo sapiens, UniProt P09874); assay: Inhibition of PARP1 (unknown origin) using histone as substrate by ELISA
[2] = tested on: CAPAN-1; assay: Antiproliferative activity against human CAPAN-1 cells assessed as cell proliferation inhibition incubated for 7 days by SRB assay; format: functional, cell-based
[3] = Antiproliferative activity against human Olaparib-resistant CAPAN-1 cells assessed as cell proliferation inhibition incubated for 7 days by SRB assay; format: functional, cell-based
[4] = tested on: CAPAN-1; assay: Antiproliferative activity against human Talazoparib-resistant CAPAN-1 cells assessed as cell proliferation inhibition incubated for 7 days by SRB assay; format: functional, cell-based
[5] = Clearance in Sprague-Dawley rat at 5 mg/kg, iv and measured upto 24 hrs; format: ADME, organism-based; conditions: in vivo
[6] = Stabilization of human His-tagged PARP1-DNA complex assessed as increase in fluorescence signal incubated for 60 mins using NAD+ as substrate by DSB fluorescence polarization assay
[7] = Half life in Sprague-Dawley rat at 5 mg/kg, iv and measured upto 24 hrs; format: ADME, organism-based; conditions: in vivo

Chain of Poly [ADP-ribose] polymerase 1 (P09874 whole entry): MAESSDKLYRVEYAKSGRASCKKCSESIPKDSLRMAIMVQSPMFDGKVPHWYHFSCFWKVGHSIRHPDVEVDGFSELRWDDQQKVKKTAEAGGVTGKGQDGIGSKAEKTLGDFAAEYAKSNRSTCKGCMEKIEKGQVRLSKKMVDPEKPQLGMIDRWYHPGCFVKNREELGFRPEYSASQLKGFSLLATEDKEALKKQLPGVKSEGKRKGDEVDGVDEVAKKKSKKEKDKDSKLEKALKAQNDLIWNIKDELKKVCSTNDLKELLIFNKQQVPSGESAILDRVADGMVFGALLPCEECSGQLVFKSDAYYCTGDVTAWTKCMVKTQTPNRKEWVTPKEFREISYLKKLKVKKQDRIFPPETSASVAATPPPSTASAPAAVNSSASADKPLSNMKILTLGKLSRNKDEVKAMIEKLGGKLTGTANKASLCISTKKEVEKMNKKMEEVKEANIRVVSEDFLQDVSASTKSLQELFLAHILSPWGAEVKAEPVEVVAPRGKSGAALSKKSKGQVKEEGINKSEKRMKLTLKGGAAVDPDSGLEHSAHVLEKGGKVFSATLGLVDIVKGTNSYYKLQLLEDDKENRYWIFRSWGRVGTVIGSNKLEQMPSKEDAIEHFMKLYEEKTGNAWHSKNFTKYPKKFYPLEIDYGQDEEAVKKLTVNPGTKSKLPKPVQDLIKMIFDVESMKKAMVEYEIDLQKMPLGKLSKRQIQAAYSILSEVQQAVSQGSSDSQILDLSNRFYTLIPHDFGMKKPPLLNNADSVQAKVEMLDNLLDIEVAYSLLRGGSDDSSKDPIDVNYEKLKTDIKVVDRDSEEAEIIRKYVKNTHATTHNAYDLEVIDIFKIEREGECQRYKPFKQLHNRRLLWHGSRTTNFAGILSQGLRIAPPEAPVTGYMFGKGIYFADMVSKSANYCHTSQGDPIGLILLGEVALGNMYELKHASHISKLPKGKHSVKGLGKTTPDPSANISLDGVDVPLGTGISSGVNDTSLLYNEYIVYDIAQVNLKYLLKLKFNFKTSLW

Row | Structure (SMILES) | IC50 [1] [nM] | clearance [5] [mL/min/kg] | EC50 [6] [nM] | half-life [7] [min] | IC50 [2] [nM] | IC50 [3] [nM] | IC50 [4] [nM]
1 | O=C(c1cc(Cc2n[nH]c(=O)c3ccccc23)ccc1F)N1CCN(C(=O)C2CC2)CC1 [OLAPARIB] |  | 34.3 | 234 | 31.8 |  |  | 
2 | O=C(c1cc(Cc2n[nH]c(=O)c3ccccc23)ccc1F)N1CCn2c(nnc2-c2ccc(C(F)(F)F)o2)C1 | 61.7 |  |  |  | 2.32 | 52.3 | 6.09
3 | NC(=O)c1cccc2cn(-c3ccc([C@@H]4CCCNC4)cc3)nc12 [NIRAPARIB] |  |  | 621 |  |  |  | 
4 | Cn1cc(-c2nnc3n2CCN(C(=O)c2cc(Cc4n[nH]c(=O)c5ccccc45)ccc2F)C3)cn1 | 7.32 |  |  |  | 351 | 7160 | 6990
5 | O=C(c1cc(Cc2n[nH]c(=O)c3ccccc23)ccc1F)N1CCn2c(nnc2-c2ccc(C(F)F)o2)C1 | 23.1 |  |  |  | 6.64 | 71.1 | 70.3
6 | O=C(c1cc(Cc2n[nH]c(=O)c3ccccc23)ccc1F)N1CCn2c(nnc2-c2ccc(C3CCOCC3)o2)C1 | 2.33 |  |  |  | 3.8 | 78.2 | 78.4
7 | O=C(c1cc(Cc2n[nH]c(=O)c3ccccc23)ccc1F)N1CCn2c(nnc2-c2ccc(C3COC3)o2)C1 | 6.19 |  |  |  | 15.5 | 363 | 191
8 | O=C(c1cc(Cc2n[nH]c(=O)c3ccccc23)ccc1F)N1CCn2c(nnc2C2CCOC2)C1 (stereo not given) | 1.91 |  |  |  | 39.1 | 1110 | 517
9 | CN(C)Cc1ccc(-c2nnc3n2CCN(C(=O)c2cc(Cc4n[nH]c(=O)c5ccccc45)ccc2F)C3)o1 | 1.35 |  |  |  | 151 | 1030 | 941
10 | NCC(F)(F)c1ccc(-c2nnc3n2CCN(C(=O)c2cc(Cc4n[nH]c(=O)c5ccccc45)ccc2F)C3)o1 | 8.49 |  |  |  | 122 | 766 | 627
11 | Cc1nc(-c2nnc3n2CCN(C(=O)c2cc(Cc4n[nH]c(=O)c5ccccc45)ccc2F)C3)cs1 | 2.14 |  |  |  | 19 |  | 203
12 | O=C(c1cc(Cc2n[nH]c(=O)c3ccccc23)ccc1F)N1CCn2c(nnc2-c2ccc(C(F)(F)CO)o2)C1 | 5.67 |  |  |  | 15.9 | 137 | 115
13 | Cn1ncnc1[C@H]1c2n[nH]c(=O)c3cc(F)cc(c23)N[C@@H]1c1ccc(F)cc1 [TALAZOPARIB] |  |  |  |  | 7.77 | 686 | 906
14 | CP(C)(=O)c1ccc(-c2nnc3n2CCN(C(=O)c2cc(Cc4n[nH]c(=O)c5ccccc45)ccc2F)C3)o1 | 12.9 |  |  |  | 3550 | > 10000 | > 10000
15 | Cc1cccc(-c2nnc3n2CCN(C(=O)c2cc(Cc4n[nH]c(=O)c5ccccc45)ccc2F)C3)n1 | 13.5 |  |  |  | 6.47 | 42.2 | 68.5
16 | Cn1ccc(-c2nnc3n2CCN(C(=O)c2cc(Cc4n[nH]c(=O)c5ccccc45)ccc2F)C3)n1 | 6.34 |  |  |  | 30.4 | 135 | 168
17 | O=C(c1cc(Cc2n[nH]c(=O)c3ccccc23)ccc1F)N1CCn2c(nnc2-c2ccc([N+](=O)[O-])o2)C1 | 47.4 |  |  |  | 5.89 | 178 | 214
18 | CNCC(F)(F)c1ccc(-c2nnc3n2CCN(C(=O)c2cc(Cc4n[nH]c(=O)c5ccccc45)ccc2F)C3)o1 | 8.15 |  |  |  | 24.3 | 423 | 393

Second part, led by results:

Row | IC50 [1] [nM] | clearance [5] [mL/min/kg] | EC50 [6] [nM] | half-life [7] [min] | Structure (SMILES) | IC50 [2] [nM] | IC50 [3] [nM] | IC50 [4] [nM]
19 | 0.74 |  |  |  | O=C(c1cc(Cc2n[nH]c(=O)c3ccccc23)ccc1F)N1CCn2c(nnc2-c2ccc(Cl)o2)C1 | 1.48 | 12.6 | 5.91
20 | 1.28 |  |  |  | O=C(c1cc(Cc2n[nH]c(=O)c3ccccc23)ccc1F)N1CCn2c(nnc2-c2ccc(CN3CCOCC3)o2)C1 | 290 | 5140 | 2000
21 | 0.97 |  |  |  | O=C(c1cc(Cc2n[nH]c(=O)c3ccccc23)ccc1F)N1CCn2c(nnc2-c2ccno2)C1 | 18.6 | 348 | 249
22 | 0.17 |  |  |  | O=C(c1cc(Cc2n[nH]c(=O)c3ccccc23)ccc1F)N1CCn2c(nnc2-c2ccc(CN3CCCCC3)o2)C1 | 56.8 | 605 | 393
23 | 0.02 |  |  |  | O=C(c1cc(Cc2n[nH]c(=O)c3ccccc23)ccc1F)N1CCn2c(nnc2-c2ccc(CN3CCSCC3)o2)C1 | 50.5 | 618 | 404
24 | 1.26 |  |  |  | O=C(c1cc(Cc2n[nH]c(=O)c3ccccc23)ccc1F)N1CCn2c(nnc2-c2ccc(CN3CCCC3)o2)C1 | 161 | 1430 | 905
25 | < 0.001 |  |  |  | Cc1cc(-c2nnc3n2CCN(C(=O)c2cc(Cc4n[nH]c(=O)c5ccccc45)ccc2F)C3)oc1C | 1.44 | 22.1 | 21
26 | 0.26 |  |  |  | O=C(c1cc(Cc2n[nH]c(=O)c3ccccc23)ccc1F)N1CCn2c(nnc2-c2ccco2)C1 | 7.39 | 56.4 | 40
27 | 0.23 |  |  |  | N#Cc1ccc(-c2nnc3n2CCN(C(=O)c2cc(Cc4n[nH]c(=O)c5ccccc45)ccc2F)C3)o1 | 83.8 |  | > 10000
28 | 0.86 |  |  |  | CNCc1ccc(-c2nnc3n2CCN(C(=O)c2cc(Cc4n[nH]c(=O)c5ccccc45)ccc2F)C3)o1 | 500 | 6150 | 4600
29 | 0.44 |  |  |  | O=C(c1cc(Cc2n[nH]c(=O)c3ccccc23)ccc1F)N1CCn2c(nnc2-c2ccoc2)C1 | 8.81 | 73.6 | 42.5
30 | 0.96 |  |  |  | O=C(c1cc(Cc2n[nH]c(=O)c3ccccc23)ccc1F)N1CCn2c(nnc2-c2ccc(CN3CCC3)o2)C1 | 349 | 6490 | 5590
31 | 0.24 |  |  |  | Cc1ccc(-c2nnc3n2CCN(C(=O)c2cc(Cc4n[nH]c(=O)c5ccccc45)ccc2F)C3)o1 | 1.82 | 8.28 | 9.98
32 | 0.96 |  |  |  | CCN(CC)Cc1ccc(-c2nnc3n2CCN(C(=O)c2cc(Cc4n[nH]c(=O)c5ccccc45)ccc2F)C3)o1 | 98.3 | 812 | 701
33 | < 0.1 |  |  |  | O=C(c1cc(Cc2n[nH]c(=O)c3ccccc23)ccc1F)N1CCn2c(nnc2-c2cc(Br)c(Cl)o2)C1 | 0.24 | 20.3 | 12.1

— ChEMBL document CHEMBL5365431 (J Med Chem, 2023)
